We go through five compounds from patent publication US20250302740A1, “A CONTROLLED RELEASE, ANTIMICROBIAL GEL FOR THE TREATMENT OF VAGINAL INFECTIONS” (priority 2022, published 2025).

The subject of assay [1] is Lactobacillus. Put plainly: MIC and MBC against Lactobacillus. The format is cell-based. As to the method:
(§1) A study was carried out to determine the effectiveness of thymol and carvacrol, singly or in combination, against bacterial vaginosis, trichomoniasis, candidiasis and lactobacilli relative to metronidazole, clotrimazole and clindamycin.
(§2) The results are shown in Table 2, wherein minimum inhibitory concentration (MIC) and minimum bactericidal (or fungicidal) concentration (MBC or MFC) are shown: […]

Assay [2] relates to Gardnerella vaginalis. Put plainly: MIC and MBC against Gardnerella vaginalis. The class given is cell-based. As to the method:
as §1, §2

Assay [3] has as its system Candida albicans. Put plainly: MIC and MFC against Candida albicans. The class given is cell-based. As to the method: as §1, §2
Assay [4] concerns Gardnerella vaginalis biofilm. The settings on record: cited from earlier work; for Mature biofilm inhibition: Gardnerella mature biofilm; for Native biofilm inhibition: Gardnerella native biofilm.
Assay [5] relates to G. vaginalis. The settings on record: cited from earlier work.
Assay [6] deals with C. albicans biofilms. The settings on record: cited from earlier work.
Assay [7] deals with Lactobacillus acidophilus. Put plainly: Inhibition of Lactobacillus acidophilus across thymol concentration range. The format is cell-based. The following applies: steady rate across the concentration range. From the text: Lactobacillus acidophilus, with a steady rate of <10% inhibition of Lactobacillus acidophilus across the concentration range, compared to inhibition range of 10% to 100% across the same concentration range.

Assay [8] has as its system Gardnerella vaginalis biofilm. The following applies: cited from earlier work.

Like-named read-outs stand apart in the source and are kept apart here.

Regarding `CCC[C@@H]1C[C@@H](C(=O)N[C@@H]([C@H]2O[C@H](SC)[C@H](O)[C@@H](O)[C@H]2O)[C@H](C)Cl)N(C)C1` [Clindamycin, reference compound], the MIC (in general, the smallest concentration in the dilution series that meets the test's criterion for growth inhibition) in assay [1] (read-out: MIC) was 1000 mg/L; in assay [2] (read-out: MIC) it was 4 mg/L. Further, the MBC (as a rule, the smallest concentration meeting the test's criterion for killing) in assay [2] (read-out: MBC) came to 8 mg/L.

Regarding `Clc1ccccc1C(c1ccccc1)(c1ccccc1)n1ccnc1` [Clotrimazole, reference compound], in assay [3] (read-out: MFC), the MFC (in general, the lowest tested concentration that kills the fungus rather than only halting it) was no less than 2000 mg/L. Further, the MIC in assay [3] (read-out: MIC) stood at 1000 mg/L.

With `Cc1ccc(C(C)C)c(O)c1` [Thymol], in assay [3] (read-out: MFC), the MFC is 2500 mg/L. The MIC in assay [3] (read-out: MIC) was 125 mg/L; in assay [2] (read-out: MIC), 175 mg/L. Besides, the Mature biofilm inhibition is 13.20% in assay [4] (1/4 MIC) and 26.18% in assay [4] (1 MIC). The Native biofilm inhibition in assay [4] (1/8 MIC) is 11.39%; in assay [4] (1 MIC) it was 32.77%. Moreover, the MBC in assay [2] (read-out: MBC) is 250 mg/L. The “Adhesion of G. vaginalis to human vaginal cells” value in assay [5] was “interfere with the adhesion”. Further, in assay [6] (C. albicans mature biofilms), the “Destruction of mature biofilms” value is listed as “considerable effect”. Moreover, the “Reduction in biofilms formed” value in assay [6] (C. albicans, 0.5xMIC, P<0.05) is reported as “significant reduction”. Moreover, in assay [7], the “Inhibition of Lactobacillus acidophilus” value is less than 10%.

For the compound `Cc1ccc(C(C)C)cc1O` [Carvacrol], in assay [1], the MBC turned out to be 2440 mg/L and the MIC amounted to 2440 mg/L. Also, in assay [3], the MFC came out at 1250 mg/L and the MIC worked out at 625 mg/L. Further, in assay [2], the MBC came to 156 mg/L and the minimal inhibitory concentration (MIC) is 156 mg/L.

On to `Cc1ncc([N+](=O)[O-])n1CCO` [Metronidazole, reference compound], for which the MIC in assay [1] (read-out: MIC) was no less than 1000 mg/L; in assay [2] (read-out: MIC) it was 64 mg/L. In assay [8] (Gardnerella vaginalis), the “Prevention of biofilm formation” value is “only able to prevent biofilm formation”. In assay [8] (mature biofilm of Gardnerella vaginalis), the “Inhibition or killing of mature biofilm” value is recorded as “unable to inhibit or kill”.
